In the RepoRT retention time repository (doi:10.1021/acs.analchem.7b00925) one finds LC retention time data, which are given here for 66 compounds.

Molecules are shown by their SMILES.

A short description of the data set: HILIC, Merck SeQuant ZIC-HILIC, 100 × 2.1 mm, 3.5 µm, 25 °C, 0.3 mL/min, estimated dead time 0.73 min; A: water + 0.1% formic acid, pH 3; B: acetonitrile + 0.1% formic acid, pH 3; gradient (min/%B) 0/95 1.5/95 13.5/40 15.5/40 29.7/25 33.5/25 34.5/95 41.5/95. Particulars: stereoisomer not certain.
`CCCCC(N)C(=O)O` (racemic) [DL-Norleucine]: the LC retention time was 6.41 min.
As for `Cn1c(=O)c2c([nH]c(=O)n2C)n(C)c1=O` [1,3,7-trimethyluric acid], the LC retention time is 1.87 min.
Under `Cn1c(=O)[nH]c2[nH]c(=O)n(C)c2c1=O` [1,7-dimethyluric acid] stands 3.78 min.
With `O=C(O)Cn1ccnc1` [1-Imidazoleacetic acid], the LC retention time is 7.7 min.
On to `C[n+]1cccc(C(N)=O)c1` [1-Methylnicotinamide], for which the LC retention time was 8.28 min.
Turning to `CC(O)CN` (stereo unspecified) [1-amino-2-propanol], the LC retention time is 8.65 min.
As for `Cn1c(=O)[nH]c2[nH]c(=O)[nH]c2c1=O` [1-methyluric acid], the LC retention time is 4.66 min.
For `O=c1[nH]cccc1O` [2,3-Dihydroxypyridine], the LC retention time is 4.47 min.
With `NC(CCCC(N)C(=O)O)C(=O)O` (stereo unspecified) [2,6-diaminopimelic acid], the LC retention time was 11.1 min.
Under `CC(=O)c1cnccn1` [2-Acetylpyrazine] stands 0.96 min; under `Nc1ccccc1C(=O)O` [2-Aminobenzoic acid], 1.24 min.
Under `Nc1ccccc1O` [2-Aminophenol] stands 6 min.
`O=c1[nH]c2ccccc2o1` [2-Benzoxazolinone]: the LC retention time is 1.01 min.
Under `CC1CCCN1` (stereo unspecified) [2-Methylpyrrolidine] stands 6.72 min.
As for `O=C1CCCCN1` [2-Piperidone], the LC retention time was 1.85 min.
Under `O=C(O)Cc1ccccn1` [2-Pyridylacetic acid] stands 4.67 min; under `O=c1[nH]cnc2c1ncn2C1CC(O)C(CO)O1` (stereo unspecified) [2-deoxyinosine], 4.69 min.
With `O=C(O)CNC(=O)c1ccco1` [2-furoylglycine], the LC retention time is 1.46 min.
`NC(Cc1ccc(O)c(O)c1)C(=O)O` (stereo unspecified) [3,4-dihydroxyphenylalanine]: the LC retention time was 8.17 min.
On to `OCCc1ccc(O)c(O)c1` [3,4-dihydroxyphenylethanol], for which the LC retention time is 2.27 min.
Under `Oc1cccnc1` [3-Hydroxypyridine] stands 6.36 min.
Under `O=C(O)Cc1c[nH]c2ccccc12` [3-Indoleacetic acid] stands 1.26 min; under `O=C(O)Cc1cccnc1` [3-Pyridylacetic acid], 5.94 min.
Under `O=C(O)[C@H]1NCCC1O` (stereo partly specified) [3-hydroxyproline] stands 8.12 min; under `Cn1cncc1CC(N)C(=O)O` (stereo unspecified) [3-methylhistidine], 12 min.
On to `Nc1ccc(O)cc1` [4-Aminophenol], for which the LC retention time was 8.1 min.
Turning to `Nc1ccc(C(=O)O)c(O)c1` [4-Aminosalicylic acid], the LC retention time was 1.3 min.
Under `NC(N)=NCCCC(=O)O` [4-Guanidinobutanoic acid] stands 7.51 min; under `CC(CCC(=O)[O-])[N+](C)(C)C` (stereo unspecified) [4-aminovaleric acid betaine], 5.95 min.
As to `Cc1ncc(CO)c(C(=O)O)c1O` [4-pyridoxic acid], the LC retention time was 4.14 min.
As to `C[N+](C)(C)CCCCC(=O)[O-]` [5-Aminovaleric acid betaine], the LC retention time is 6.01 min.
For `NCC(=O)CCC(=O)O` [5-aminolevulinic acid], the LC retention time is 8.57 min.
As for `O=C(O)Cc1c[nH]c2ccc(O)cc12` [5-hydroxyindoleacetate], the LC retention time was 3.62 min.
Consider `NC(Cc1c[nH]c2ccc(O)cc12)C(=O)O` (stereo unspecified) [5-hydroxytryptophan], for which the LC retention time is 7.58 min.
Consider `Cn1cnc2nc(N)[nH]c(=O)c21` [7-methylguanine], for which the LC retention time was 6.62 min.
Under `Cn1cnc2[nH]c(=O)[nH]c(=O)c21` [7-methylxanthine] stands 2.72 min; under `Nc1nc2c([nH]c(=O)n2C2OC(CO)C(O)C2O)c(=O)[nH]1` (stereo unspecified) [8-hydroxyguanosine], 6.1 min.
Under `CC(=O)OCC[N+](C)(C)C` [Acetylcholine] stands 3.46 min; under `CC(=O)NC(CCCNC(N)=O)C(=O)O` (stereo unspecified) [Acetylcitrulline], 5.09 min.
Under `Nc1ncnc2c1ncn2C1OC(COP(=O)(O)O)C(O)C1O` (stereo unspecified) [Adenosine mono-phosphate] stands 8.41 min.
Regarding `CNCC(O)c1ccc(O)c(O)c1` (stereo unspecified) [Adrenaline], the LC retention time was 8.61 min.
Under `NCCCCN=C(N)N` [Agmatine] stands 15.3 min; under `CC(C(=O)[O-])[N+](C)(C)C` (stereo unspecified) [Alanine betaine], 7.32 min; under `CC(N)C(=O)O` (stereo unspecified) [Alanine], 8.06 min.
Under `CC(C)CC(NC(=O)C(C)N)C(=O)O` (stereo unspecified) [Alanyl-leucine] stands 6.54 min; under `O=c1[nH]c(=O)c2cn[nH]c2[nH]1` [Alloxanthine], 4.27 min.
`[NH3+]CCCCCC(=O)[O-]` [Aminocaproate]: the LC retention time was 7.15 min.
Under `CC1(C)SC2C(NC(=O)C(N)c3ccc(O)cc3)C(=O)N2C1C(=O)O` (stereo unspecified) [Amoxicillin] stands 6.82 min.
Regarding `NC(=NCCCC(N)C(=O)O)NC(CC(=O)O)C(=O)O` (stereo unspecified) [Argininosuccinic acid], the LC retention time is 11.3 min.
`CC(NC(=O)C(Cc1ccccc1)NC(=O)C(N)CC(=O)O)C(=O)O` (stereo not drawn) [Asp-Phe-Ala]: the LC retention time is 6.71 min.
Consider `NC(=O)CC(N)C(=O)O` (stereo unspecified) [Asparagine], for which the LC retention time is 8.67 min.
Under `COC(=O)C(Cc1ccccc1)NC(=O)C(N)CC(=O)O` (stereo unspecified) [Aspartame] stands 5.89 min.
Take `NC(COCc1ccccc1)C(=O)O` (stereo unspecified) [Benzylserine]: the LC retention time is 5.46 min.
For the compound `CC(O)C(O)c1cnc2nc(N)[nH]c(=O)c2n1` (stereo unspecified) [Biopterin], the LC retention time was 6.01 min.
Under `O=S(=O)(O)CCNC1CCCCC1` [CHES] stands 5 min.
Regarding `NCCC(=O)NC(Cc1cnc[nH]1)C(=O)O` (stereo unspecified) [Carnosine], the LC retention time was 13.1 min.
Under `CC(CCC(=O)O)C1CCC2C3C(O)CC4CC(O)CCC4(C)C3CCC12C` (stereo unspecified) [Chenodeoxycholic acid] stands 1.3 min; under `O=C(C=Cc1ccc(O)c(O)c1)OC1CC(O)(C(=O)O)CC(O)C1O` (stereo unspecified) [Chlorogenic acid], 4.42 min.
For the compound `C[N+](C)(C)CCOP(=O)(O)OP(=O)([O-])OCC1OC(n2ccc(N)nc2=O)C(O)C1O` (stereo unspecified) [Citicholine], the LC retention time is 10.6 min.
Under `NC(=O)NCCCC(N)C(=O)O` (stereo unspecified) [Citrulline] stands 8.89 min; under `CN1C(=O)CCC1c1cccnc1` (stereo unspecified) [Cotinine], 5.16 min.
Under `NC(CCSCC(N)C(=O)O)C(=O)O` (stereo unspecified) [Cystathionine] stands 10.5 min; under `NC(CSS(=O)(=O)O)C(=O)O` (stereo unspecified) [Cysteine-S-sulfate], 7.64 min; under `NC(CS)C(=O)O` (stereo unspecified) [Cysteine], 7.62 min.
With `N[C@H]1C(O)O[C@H](COP(=O)(O)O)[C@@H](O)[C@@H]1O` (stereo partly drawn) [D-glucosamine-6-phosphate], the LC retention time was 10 min.
Under `OCCNCCO` [Diethanolamine] stands 8.22 min.
